{"source": "EPA's ToxRefDB 2", "key": {"[1]": {"system": "rat", "conditions": "Subchronic oral toxicity in rodents, sprague dawley, Feed, dose end: 13 week, group: systemic, systemic / in life observation / body weight / body weight gain + systemic / organ weight / kidney / relative to body weight"}, "[2]": {"system": "rat", "conditions": "Multigenerational reproductive toxicity study, sprague dawley, Oral, Feed, dose end: 2 generation"}, "[3]": {"system": "rabbit", "conditions": "Prenatal developmental toxicity study, new zealand white, Oral, Gavage/Intubation, dose end: 19 GD"}, "[4]": {"system": "dog", "conditions": "Subchronic oral toxicity in nonrodent, beagle, Capsule, dose end: 13 week, group: systemic"}, "[5]": {"system": "dog", "conditions": "Chronic toxicity, beagle, Oral, Capsule, dose end: 52 week, group: systemic"}, "[6]": {"system": "rat", "conditions": "Combined chronic toxicity/carcinogenicity, sprague dawley, Oral, Feed, dose end: 2 year, group: systemic"}, "[7]": {"system": "mouse", "conditions": "Carcinogenicity, cd1, Oral, Feed, dose end: 18 month, group: systemic"}, "[8]": {"system": "rabbit", "conditions": "Prenatal developmental toxicity study, other, Oral, Gavage/Intubation, dose end: 18 GD"}, "[9]": {"system": "rat", "conditions": "Prenatal developmental toxicity study, sprague dawley, Oral, Gavage/Intubation, dose end: 15 GD"}, "[10]": {"system": "rat", "conditions": "Subchronic oral toxicity in rodents, fischer, Feed, dose end: 90 day, group: systemic, systemic / pathology microscopic / stomach / erosion + systemic / pathology microscopic / stomach / hyperkeratosis + systemic / pathology …"}, "[11]": {"conditions": "group: offspring, developmental / offspring survival late / viability index / viability index + developmental / offspring survival late / lactation index / …"}, "[12]": {"conditions": "group: offspring, developmental / offspring survival late / viability index / viability index + systemic / in life observation / body weight / offspring (pup…"}, "[13]": {"conditions": "group: parental, systemic / in life observation / body weight / body weight + systemic / in life observation / body weight / body weight gain + systemic / …"}, "[14]": {"conditions": "group: developmental, developmental / developmental malformation / bone / unossified + developmental / developmental malformation / brain / hydrocephalus + …"}, "[15]": {"conditions": "group: maternal, reproductive / reproductive performance / aborted / aborted + systemic / in life observation / body weight / body weight gain + systemic / …"}, "[16]": {"conditions": "systemic / pathology microscopic / thymus / involution + systemic / clinical chemistry / alanine aminotransferase (alt/sgpt) / alanine …"}, "[17]": {"conditions": "systemic / pathology microscopic / thymus / involution + systemic / pathology microscopic / epididymis / reduced spermatogenesis + systemic…"}, "[18]": {"conditions": "systemic / pathology microscopic / liver / pigmentation + systemic / hematology / erythrocyte (rbc) count differential / erythrocyte (rbc…"}, "[19]": {"conditions": "systemic / pathology microscopic / liver / pigmentation + systemic / pathology microscopic / epididymis / inflammation + systemic / …"}, "[20]": {"conditions": "systemic / pathology gross / liver / foci"}, "[21]": {"conditions": "systemic / in life observation / mortality / mortality + systemic / pathology microscopic / bone marrow / hyperplasia + systemic / pathology…"}, "[22]": {"conditions": "systemic / organ weight / brain / relative to body weight"}, "[23]": {"conditions": "group: developmental, developmental / developmental malformation / bone / branched + developmental / developmental malformation / bone / full supernumerary"}, "[24]": {"conditions": "group: maternal, systemic / in life observation / body weight / body weight gain + systemic / in life observation / food consumption / food consumption"}, "[25]": {"conditions": "group: developmental, developmental / developmental malformation / bone / [other] + developmental / developmental malformation / kidney / dilated renal pelvis + …"}, "[26]": {"conditions": "group: maternal, systemic / in life observation / body weight / body weight gain + systemic / in life observation / food consumption / food consumption + …"}}, "data": [{"compound": "CCc1c(C(=O)[O-])c(=O)cnn1-c1ccc(Cl)cc1.[K+]", "note": "[Clofencet-potassium]", "values": [{"measurement": "LEL", "setting": "[1]", "result": 1480, "unit": "mg/kg/day"}, {"measurement": "LOAEL", "setting": "[1]", "result": 1480, "unit": "mg/kg/day"}, {"measurement": "NEL", "setting": "[1]", "result": 373, "unit": "mg/kg/day"}, {"measurement": "NOAEL", "setting": "[1]", "result": 373, "unit": "mg/kg/day"}, {"measurement": "LEL", "setting": "[2]; [11]", "result": 393, "unit": "mg/kg/day"}, {"measurement": "LOAEL", "setting": "[2]; [11]", "result": 393, "unit": "mg/kg/day"}, {"measurement": "NEL", "setting": "[2]; [12]", "result": 38, "unit": "mg/kg/day"}, {"measurement": "NOAEL", "setting": "[2]; [12]", "result": 38, "unit": "mg/kg/day"}, {"measurement": "LEL", "setting": "[2]; [13]", "result": 1600, "unit": "mg/kg/day"}, {"measurement": "LOAEL", "setting": "[2]; [13]", "result": 1600, "unit": "mg/kg/day"}, {"measurement": "NEL", "setting": "[2]; [13]", "result": 393, "unit": "mg/kg/day"}, {"measurement": "NOAEL", "setting": "[2]; [13]", "result": 393, "unit": "mg/kg/day"}, {"measurement": "LEL", "setting": "[3]; [14]", "result": 500, "unit": "mg/kg/day"}, {"measurement": "LOAEL", "setting": "[3]; [14]", "result": 500, "unit": "mg/kg/day"}, {"measurement": "NEL", "setting": "[3]; [14]", "result": 150, "unit": "mg/kg/day"}, {"measurement": "NOAEL", "setting": "[3]; [14]", "result": 150, "unit": "mg/kg/day"}, {"measurement": "LEL", "setting": "[3]; [15]", "result": 500, "unit": "mg/kg/day"}, {"measurement": "LOAEL", "setting": "[3]; [15]", "result": 500, "unit": "mg/kg/day"}, {"measurement": "NEL", "setting": "[3]; [15]", "result": 150, "unit": "mg/kg/day"}, {"measurement": "NOAEL", "setting": "[3]; [15]", "result": 150, "unit": "mg/kg/day"}, {"measurement": "NEL", "setting": "[4]; [16]", "result": 50, "unit": "mg/kg/day"}, {"measurement": "NOAEL", "setting": "[4]; [16]", "result": 50, "unit": "mg/kg/day"}, {"measurement": "LEL", "setting": "[4]; [17]", "result": 200, "unit": "mg/kg/day"}, {"measurement": "LOAEL", "setting": "[4]; [17]", "result": 200, "unit": "mg/kg/day"}, {"measurement": "NEL", "setting": "[5]; [18]", "result": 5, "unit": "mg/kg/day"}, {"measurement": "NOAEL", "setting": "[5]; [18]", "result": 5, "unit": "mg/kg/day"}, {"measurement": "LEL", "setting": "[5]; [19]", "result": 30, "unit": "mg/kg/day"}, {"measurement": "LOAEL", "setting": "[5]; [19]", "result": 30, "unit": "mg/kg/day"}, {"measurement": "LOAEL", "setting": "[6]; systemic / in life observation / clinical signs / urine, discoloration + systemic / pathology gross / lung / foci + systemic / pathology …", "result": 470, "unit": "mg/kg/day"}, {"measurement": "LEL", "setting": "[6]; [20]", "result": 4.7, "unit": "mg/kg/day"}, {"measurement": "NEL", "setting": "[6]; [20]", "result": "< 4.7", "unit": "mg/kg/day"}, {"measurement": "NOAEL", "setting": "[6]; systemic / pathology gross / liver / foci + systemic / in life observation / clinical signs / urine, discoloration + systemic / pathology …", "result": 47, "unit": "mg/kg/day"}, {"measurement": "LOAEL", "setting": "[7]; [21]", "result": 1230, "unit": "mg/kg/day"}, {"measurement": "NOAEL", "setting": "[7]; [21]", "result": 501, "unit": "mg/kg/day"}, {"measurement": "LEL", "setting": "[7]; [22]", "result": 11.4, "unit": "mg/kg/day"}, {"measurement": "NEL", "setting": "[7]; [22]", "result": "< 11.4", "unit": "mg/kg/day"}]}, {"compound": "CC(C)C1CCC(Cc2ccc(Cl)cc2)C1(O)Cn1cncn1", "note": "(stereo unspecified) [Ipconazole]", "values": [{"measurement": "LEL", "setting": "[8]; [23]", "result": 50, "unit": "mg/kg/day"}, {"measurement": "LOAEL", "setting": "[8]; [23]", "result": 50, "unit": "mg/kg/day"}, {"measurement": "NEL", "setting": "[8]; [23]", "result": 10, "unit": "mg/kg/day"}, {"measurement": "NOAEL", "setting": "[8]; [23]", "result": 10, "unit": "mg/kg/day"}, {"measurement": "LEL", "setting": "[8]; [24]", "result": 50, "unit": "mg/kg/day"}, {"measurement": "LOAEL", "setting": "[8]; [24]", "result": 50, "unit": "mg/kg/day"}, {"measurement": "NEL", "setting": "[8]; [24]", "result": 10, "unit": "mg/kg/day"}, {"measurement": "NOAEL", "setting": "[8]; [24]", "result": 10, "unit": "mg/kg/day"}, {"measurement": "LEL", "setting": "[9]; [25]", "result": 30, "unit": "mg/kg/day"}, {"measurement": "LOAEL", "setting": "[9]; [25]", "result": 30, "unit": "mg/kg/day"}, {"measurement": "NEL", "setting": "[9]; [25]", "result": 10, "unit": "mg/kg/day"}, {"measurement": "NOAEL", "setting": "[9]; [25]", "result": 10, "unit": "mg/kg/day"}, {"measurement": "LOAEL", "setting": "[9]; [24]", "result": 30, "unit": "mg/kg/day"}, {"measurement": "LEL", "setting": "[9]; [26]", "result": 30, "unit": "mg/kg/day"}, {"measurement": "NEL", "setting": "[9]; [26]", "result": 10, "unit": "mg/kg/day"}, {"measurement": "NOAEL", "setting": "[9]; [26]", "result": 10, "unit": "mg/kg/day"}, {"measurement": "LEL", "setting": "[10]", "result": 29.9, "unit": "mg/kg/day"}, {"measurement": "LOAEL", "setting": "[10]", "result": 29.9, "unit": "mg/kg/day"}, {"measurement": "NEL", "setting": "[10]", "result": 7.22, "unit": "mg/kg/day"}, {"measurement": "NOAEL", "setting": "[10]", "result": 7.22, "unit": "mg/kg/day"}]}]}
